# Tested on: Plasmodium berghei
# Assay: Luciferase/luciferin-expressing antifolate-resistant parasites were used to infect a culture of HepG2 cells that were pre-incubated with compounds. Infected hepatocytes emit light due to the luciferase reaction. Assay results are presented as the percent inhibition of light emission compared to control. […]
# Format: functional
# Details: sporozoite; for IC90: read-out: LUCIFERASE INFECTION ASSAY - IC90
Compound,IC90 [µM],also measured
O=C(Nc1ccccc1Cc1ccccc1)c1ccccc1NS(=O)(=O)c1ccc(Cl)s1,3.48,"IC50 (FFLUC_HILL_SLOPE 7.32, FFLUC_R_SQUARED 0.665, HEPG2TOX_HILL_SLOPE 2.07, HEPG2TOX_R_SQUARED 0.984, PBLUC_HILL_SLOPE 54.5, PBLUC_R_SQUARED 0.445, read-out: LUCIFERASE INFECTION ASSAY - IC50): 3.34 µM"
O=C(c1cccc(C(F)(F)F)c1)N1CCc2c([nH]c3ccccc23)C1C(F)(F)F (configuration not stated),> 8,"IC50 (FFLUC_HILL_SLOPE 6.83, FFLUC_R_SQUARED 0.392, HEPG2TOX_HILL_SLOPE 7.06, HEPG2TOX_R_SQUARED 0.861, PBLUC_HILL_SLOPE 3.46, PBLUC_R_SQUARED 0.38, read-out: LUCIFERASE INFECTION ASSAY - IC50): 4.59 µM"
c1ccc(-c2nc(-c3ccccc3)c(-c3ccccc3)o2)cc1,> 11.1,"IC50 (FFLUC_HILL_SLOPE 6.72, FFLUC_R_SQUARED 0.191, read-out: LUCIFERASE INFECTION ASSAY - IC50): > 11.1 µM"
CNC(=O)c1ccc(CN(Cc2ccco2)C(=O)Cc2ccc(-c3ccccc3)cc2)cc1,> 10,"IC50 (FFLUC_HILL_SLOPE 7.09, FFLUC_R_SQUARED 0.0104, PBLUC_HILL_SLOPE 1.93, PBLUC_R_SQUARED 0.808, read-out: LUCIFERASE INFECTION ASSAY - IC50): 3.68 µM"
CC(=O)c1ccc(NC(=O)N2[C@@H]3CC[C@@H](C3)[C@H]2c2nc3cccc(OCc4ccc(F)cc4)c3[nH]2)cc1,> 10,"IC50 (FFLUC_HILL_SLOPE 7.32, FFLUC_R_SQUARED 0.306, PBLUC_HILL_SLOPE 12.2, PBLUC_R_SQUARED 0.357, read-out: LUCIFERASE INFECTION ASSAY - IC50): 9.72 µM"
O=C(Nc1ncccc1O)c1ccc(N2CCOCC2)nc1,4.08,"IC50 (FFLUC_HILL_SLOPE 6.17, FFLUC_R_SQUARED 0.111, PBLUC_HILL_SLOPE 1.25, PBLUC_R_SQUARED 0.907, read-out: LUCIFERASE INFECTION ASSAY - IC50): 0.705 µM"
Cc1cccc(C)c1N(C(=O)CC(c1ccccc1)c1ccccc1)c1nc2ccccc2s1,> 10,"IC50 (FFLUC_HILL_SLOPE 6.55, FFLUC_R_SQUARED 0.86, PBLUC_HILL_SLOPE 3.66, PBLUC_R_SQUARED 0.235, read-out: LUCIFERASE INFECTION ASSAY - IC50): 7.33 µM"
COc1ccc(C(=O)/C(=C\c2ccc([N+](=O)[O-])cc2)c2nc3ccccc3[nH]2)cc1,9.32,"IC50 (FFLUC_HILL_SLOPE 7.19, FFLUC_R_SQUARED 0.76, HEPG2TOX_HILL_SLOPE 6.54, HEPG2TOX_R_SQUARED 0.945, PBLUC_HILL_SLOPE 13.7, PBLUC_R_SQUARED 0.214, read-out: LUCIFERASE INFECTION ASSAY - IC50): 7.93 µM"
CC(Nc1ccc(Oc2ccc(Br)cc2)cc1)C(=O)Nc1ccc(S(N)(=O)=O)cc1 (configuration not stated),> 10,"IC50 (FFLUC_HILL_SLOPE 6.08, FFLUC_R_SQUARED 0.0812, PBLUC_HILL_SLOPE 2.58, PBLUC_R_SQUARED 0.863, read-out: LUCIFERASE INFECTION ASSAY - IC50): 4.82 µM"
CN(C)c1ccc(-c2cnc3cnc(-c4cnn(Cc5ccccc5)c4)cn23)cc1,> 8.37,"IC50 (FFLUC_HILL_SLOPE 6.21, FFLUC_R_SQUARED 0.0566, PBLUC_HILL_SLOPE 1.47, PBLUC_R_SQUARED 0.566, read-out: LUCIFERASE INFECTION ASSAY - IC50): 3.91 µM"
COc1ccc(NS(=O)(=O)c2cccc(C(=O)N/N=C(\c3ccccc3)c3ccccn3)c2)cc1,6.62,"IC50 (FFLUC_HILL_SLOPE 6.58, FFLUC_R_SQUARED 0.0766, HEPG2TOX_HILL_SLOPE 0.953, HEPG2TOX_R_SQUARED 0.956, PBLUC_HILL_SLOPE 1.34, PBLUC_R_SQUARED 0.562, read-out: LUCIFERASE INFECTION ASSAY - IC50): 1.29 µM"
O=C(Nc1ccccc1)c1ccc(CN2C(=O)NC(c3ccccc3)(c3ccccc3)C2=O)cc1,3.94,"IC50 (FFLUC_HILL_SLOPE 6.57, FFLUC_R_SQUARED 0.404, PBLUC_HILL_SLOPE 14.6, PBLUC_R_SQUARED 0.481, read-out: LUCIFERASE INFECTION ASSAY - IC50): 3.39 µM"
C#CCSc1nc2ccc(Cl)cc2c(=O)n1-c1cc(OC(C)C)c(Cl)cc1Cl,> 7.27,"IC50 (FFLUC_HILL_SLOPE 5.89, FFLUC_R_SQUARED 0.859, HEPG2TOX_HILL_SLOPE 0.407, HEPG2TOX_R_SQUARED 0.572, PBLUC_HILL_SLOPE 3.96, PBLUC_R_SQUARED 0.341, read-out: LUCIFERASE INFECTION ASSAY - IC50): 5.27 µM"
CC(=O)N1CCN(c2nc(CC(C)C)c3c(c2C#N)CCCC3)CC1,> 9.69,"IC50 (FFLUC_HILL_SLOPE 6.37, FFLUC_R_SQUARED 0.032, PBLUC_HILL_SLOPE 12.2, PBLUC_R_SQUARED 0.0332, read-out: LUCIFERASE INFECTION ASSAY - IC50): 8.99 µM"
Cc1[nH]ncc1CCCNc1nc(C(F)(F)F)nc2ccccc12,> 10,"IC50 (FFLUC_HILL_SLOPE 6.95, FFLUC_R_SQUARED 0.127, read-out: LUCIFERASE INFECTION ASSAY - IC50): > 10 µM"
COc1ccc(S(=O)(=O)Nc2ccc3c(c2)CS(=O)(=O)C3)cc1,> 9.34,"IC50 (FFLUC_HILL_SLOPE 6.24, FFLUC_R_SQUARED 0.631, read-out: LUCIFERASE INFECTION ASSAY - IC50): > 9.34 µM"

Compound,IC90 [µM],also measured
CC(C)n1c(Sc2ncc([N+](=O)[O-])s2)nc2ccccc21,4.36,"IC50 (FFLUC_HILL_SLOPE 5.73, FFLUC_R_SQUARED 0.583, HEPG2TOX_HILL_SLOPE 3.25, HEPG2TOX_R_SQUARED 0.992, PBLUC_HILL_SLOPE 9.74, PBLUC_R_SQUARED 0.283, read-out: LUCIFERASE INFECTION ASSAY - IC50): 3.48 µM"
O=C(COC(=O)/C=C/c1ccc(I)o1)Nc1cc(S(=O)(=O)N2CCCCC2)ccc1Cl,> 10,"IC50 (FFLUC_HILL_SLOPE 7.36, FFLUC_R_SQUARED 0.327, read-out: LUCIFERASE INFECTION ASSAY - IC50): > 10 µM"
CCOC(=O)N1C/C(=C/c2cccc(O)c2)C(=O)/C(=C/c2cccc(O)c2)C1,9.23,"IC50 (FFLUC_HILL_SLOPE 6.86, FFLUC_R_SQUARED 0.64, HEPG2TOX_HILL_SLOPE 2, HEPG2TOX_R_SQUARED 0.958, PBLUC_HILL_SLOPE 1.44, PBLUC_R_SQUARED 0.817, read-out: LUCIFERASE INFECTION ASSAY - IC50): 2.02 µM"
FC(F)(F)c1cccc(Nc2nccc3nc(-c4ccccc4Cl)[nH]c23)c1,> 10,"IC50 (FFLUC_HILL_SLOPE 7.35, FFLUC_R_SQUARED 0.132, HEPG2TOX_HILL_SLOPE 0.352, HEPG2TOX_R_SQUARED 0.695, PBLUC_HILL_SLOPE 1.25, PBLUC_R_SQUARED 0.396, read-out: LUCIFERASE INFECTION ASSAY - IC50): 3.07 µM"
Cc1ccccc1CN1CCN2C=C(C(=O)Nc3cccc(OC(F)(F)F)c3)OC2=NC1=O,> 10,"IC50 (FFLUC_HILL_SLOPE 6.71, FFLUC_R_SQUARED 0.0114, read-out: LUCIFERASE INFECTION ASSAY - IC50): > 10 µM"
CCc1nc(SCC(=O)Nc2nsc(-c3ccc(C(C)(C)C)cc3)n2)c2c3c(sc2n1)CCC3,> 10,"IC50 (FFLUC_HILL_SLOPE 7.48, FFLUC_R_SQUARED 0.446, read-out: LUCIFERASE INFECTION ASSAY - IC50): > 10 µM"
CSc1nccc(-c2ccc(Cl)cc2)n1,> 13.9,"IC50 (FFLUC_HILL_SLOPE 5.64, FFLUC_R_SQUARED 0.137, read-out: LUCIFERASE INFECTION ASSAY - IC50): > 13.9 µM"
Cc1cccc(CNc2nc3cnc(Nc4cccc(O)c4)cc3n2C)c1,> 10,"IC50 (FFLUC_HILL_SLOPE 6.96, FFLUC_R_SQUARED 0.0526, HEPG2TOX_HILL_SLOPE 13.6, HEPG2TOX_R_SQUARED 0.973, PBLUC_HILL_SLOPE 10.5, PBLUC_R_SQUARED 0.188, read-out: LUCIFERASE INFECTION ASSAY - IC50): 8.85 µM"
CC(C)c1ccc(-c2cnc3sc(NCc4ccncc4)nn23)cc1,> 9.44,"IC50 (FFLUC_HILL_SLOPE 6.11, FFLUC_R_SQUARED 0.0312, HEPG2TOX_HILL_SLOPE 0.148, HEPG2TOX_R_SQUARED 0.0475, read-out: LUCIFERASE INFECTION ASSAY - IC50): > 9.44 µM"
COC(=O)c1sc(SCCOC(=O)Nc2ccc(OC(F)(F)F)cc2)c2c1CC(C)(C)CC2=O,> 6.38,"IC50 (FFLUC_HILL_SLOPE 7.12, FFLUC_R_SQUARED 0.0522, read-out: LUCIFERASE INFECTION ASSAY - IC50): > 6.38 µM"
Cc1ccnc(SCc2cc(=O)n3nc(C)c(-c4ccc(F)cc4)c3[nH]2)n1,> 8.65,"IC50 (FFLUC_HILL_SLOPE 7.05, FFLUC_R_SQUARED 0.398, PBLUC_HILL_SLOPE 2.1, PBLUC_R_SQUARED 0.785, read-out: LUCIFERASE INFECTION ASSAY - IC50): > 8.65 µM"
OC1CCC(Nc2nn3c(-c4cccc(OC(F)(F)F)c4)cnc3s2)CC1 (configuration not stated),> 8.28,"IC50 (FFLUC_HILL_SLOPE 6.8, FFLUC_R_SQUARED 0.0322, read-out: LUCIFERASE INFECTION ASSAY - IC50): > 8.28 µM"
CCC(CNC(=O)NCC(=O)Nc1cc(Cl)ccc1Cl)c1ccccc1 (configuration not stated),> 10,"IC50 (FFLUC_HILL_SLOPE 6.98, FFLUC_R_SQUARED 0.07, read-out: LUCIFERASE INFECTION ASSAY - IC50): > 10 µM"
COC(=O)c1ccccc1SCC(C)=O,> 14.7,"IC50 (FFLUC_HILL_SLOPE 5.95, FFLUC_R_SQUARED 0.0707, PBLUC_HILL_SLOPE 4.71, PBLUC_R_SQUARED 0.0859, read-out: LUCIFERASE INFECTION ASSAY - IC50): 14 µM"
Cc1cc(OCCN(C)C)cc2c1C1CCC3(C)C(=O)CCC3C1C=C2 (configuration not stated),> 9.34,"IC50 (FFLUC_HILL_SLOPE 6.52, FFLUC_R_SQUARED 0.182, PBLUC_HILL_SLOPE 2.32, PBLUC_R_SQUARED 0.511, read-out: LUCIFERASE INFECTION ASSAY - IC50): 5.67 µM"

# Reference: ChEMBL document CHEMBL4483862, “Open-source discovery of chemical leads for next-generation chemoprotective antimalarials” (2018)
